From patent US7692038B2, “Crystalline forms” (Pfizer, Inc., priority 2006, dated 2010) come the findings set out here.

A short description of data set [1]: Hygroscopicity by dynamic vapour sorption (DVS), water sorption and desorption. Conditions: 30° C. The format is physicochemical. The method, then: Hygroscopicity was assessed for forms I and II using dynamic vapour sorption (DVS). The samples were characterised using a Surface Measurement Systems Ltd, dynamic vapour sorption equipment, model DVS-1. The analysis was conducted at 30° C. with a nitrogen gas flow of 200 cc/min. Water sorption and desorption were determined in the range 0 to 90% relative humidity (RH) using 15% RH intervals. Exposure was for a minimum of two hours at each humidity, or until the rate of weight change was less than 0.0005%/minute (averaged over 10 minutes). Sample weights were in the range 23-36 mg. The samples were weighed using a CAHN D-200, seven place digital recording balance, which is an integral part of the equipment. The results are tabulated below in Tables 6 and 7 and plotted in FIGS. 15 and 16.

A short description of data set [2]: Relative thermodynamic stability of polymorphs (slurry conversion). The format is physicochemical. The note with it: ambient temperature. As for the experimental part:
The crystalline forms of the invention may be prepared by the processes described below. The skilled person will understand that the preparation of particular polymorphic forms of a compound can sometimes be problematic, and that small changes in reaction conditions can sometimes result in an unexpected product. In particular, the presence of seeds in the atmosphere under which the experiment is conducted can have a decisive outcome on the result. The processes described below, however, are generally reliable. […] The form I polymorph is the more kinetically favoured product at ambient temperature and its formation is encouraged by rapid crystallisation techniques such as rapid cooling. Seeding with the desired product will obviously increase success in these preparations. Preparation of form I material is particularly encouraged by the use of a form I seed which contains a mixture of diastereomers due to epimerisation at the modified aspartate residue.
Pure form II may be prepared by slurrying a mixture of forms I and II in acetonitrile at room temperature until full conversion has taken place (typically a few days, e.g. 3 days). The product is then filtered off and dried (e.g. in a vacuum oven). The following procedures are illustrative.
A 40:60 mixture (by weight) of forms I and II was slurried in acetonitrile and left for three days. […]

As to `C[C@H](NC(=O)C(=O)Nc1ccccc1C(C)(C)C)C(=O)N[C@@H](CC(=O)O)C(=O)COc1c(F)c(F)cc(F)c1F` [Form II, (3S)-3-[N—(N′-(2-tert-butylphenyl)oxamyl)alaninyl]amino-5-(2′,3′,5′,6′-tetrafluorophenoxy)-4-oxopentanoic acid], the “Water Sorption (% w/dry w) Desorption” value in data set [1] (15% RH) amounted to 0.009 % w/dry w; in data set [1] (30% RH) it was 0.015 % w/dry w; in data set [1] (45% RH), 0.021 % w/dry w; in data set [1] (60% RH), 0.031 % w/dry w; in data set [1] (75% RH) it was 0.044 % w/dry w; in data set [1] (90% RH), 0.057 % w/dry w. Also, the “Water Sorption (% w/dry w) Sorption” value stood at 0.007 % w/dry w in data set [1] (15% RH); 0.014 % w/dry w in data set [1] (30% RH); 0.020 % w/dry w in data set [1] (45% RH); 0.029 % w/dry w in data set [1] (60% RH); 0.042 % w/dry w in data set [1] (75% RH); 0.057 % w/dry w in data set [1] (90% RH). Further, in data set [2], the “Thermodynamic stability of the polymorph” value is given as “most thermodynamically stable”.

For `C[C@H](NC(=O)C(=O)Nc1ccccc1C(C)(C)C)C(=O)N[C@@H](CC(=O)O)C(=O)COc1c(F)c(F)cc(F)c1F` [Form I, (3S)-3-[N—(N′-(2-tert-butylphenyl)oxamyl)alaninyl]amino-5-(2′,3′,5′,6′-tetrafluorophenoxy)-4-oxopentanoic acid], the “Water Sorption (% w/dry w) Desorption” value in data set [1] (15% RH) turned out to be 0.015 % w/dry w; in data set [1] (30% RH) it was 0.025 % w/dry w; in data set [1] (45% RH), 0.037 % w/dry w; in data set [1] (60% RH), 0.055 % w/dry w; in data set [1] (75% RH) it was 0.105 % w/dry w; in data set [1] (90% RH) it was 0.208 % w/dry w. Besides, the “Water Sorption (% w/dry w) Sorption” value in data set [1] (15% RH) came out at 0.018 % w/dry w; in data set [1] (30% RH), 0.028 % w/dry w; in data set [1] (45% RH) it was 0.049 % w/dry w; in data set [1] (60% RH) it was 0.072 % w/dry w; in data set [1] (75% RH), 0.110 % w/dry w; in data set [1] (90% RH), 0.208 % w/dry w.
